# Laboratory results from US11643439B2, “Multi-target compound with anticoagulation and antiplatelet activity, preparation method therefor, and use thereof” (SHAANXI MICOT TECHNOLOGY LIMITED COMPANY, priority 2015, dated 2023).
# Tests used:
# [1] = system: FeCl3-induced common carotid arterial thrombosis; assay: FeCl3-induced common carotid arterial thrombosis in rats; format: in vivo, rat
# Procedure: (§1) 160 Rats were randomly divided into groups, 5 to 10 rats per group.
# (§2) According to the body weight in kilograms of the rats, the first dose of a drug was dissolved in 2 mL of physiological saline for single bolus injection. The maintaining dose of drug was dissolved in 9 ml of physiological saline, and placed in a double-channel micro-injection pump, which was dripped off within 90 minutes at a dripping speed of 0.1 ml/min. The sham operation group was administered with the same volume of physiological saline.
# (§3) The rats were fasted with free access to water overnight before the experiment.
# After administration at a load dosage maintenance for 30 minutes, a filter paper with a 3 mm diameter and immersed with 35% FeCl3 solution was applied below the common carotid artery, below which a small piece of a plastic film (2.5 cm×2.0 cm) was placed to protect surrounding tissues. The body temperature was detected with a temperature probe in the distal end of the artery, and the time required from the beginning of stimulation to the point when the temperature decreased by 2.5 degrees was examined as the vascular occlusion time.
# The time from the point when FeCl3 was placed to the point when the temperature of the artery indicated a decrease of 2.5° C. was the vascular occlusion time, which reflected the state of thrombus formation.
# [2] = system: whole blood coagulation; assay: ACT in rabbits, single intravenous administration; format: in vivo, rabbit; settings: single iv 200 (U/kg)
# Procedure: (§4) 1. Grouping and administration: 48 Rabbits were randomly divided into 6 groups, 8 rabbits per group. 1) Sham operation group (NS): Intravenous injection of the same volume of physiological saline; 2) positive control bivalirudin group (6 mg/kg); 3) positive control enoxaparin group (200 U/kg); 4) Low dose group of polypeptide 2 (3.0 mg/kg); 5) Medium dose group of polypeptide 2 (6.0 mg/kg); 6) High dose group of polypeptide 2 (12.0 mg/kg). Polypeptide 2 was administered by single intravenous administration. According to the body weight in kilograms of the rabbits, the sample was dissolved in 2 mL of physiological saline for single bolus injection. The sham operation group was administered with the same volume of physiological saline.
# 3.3 Determination of ACT: At 0 min before administration and at points of administration for 5 min and 15 min, the whole blood was taken, to which kaolin was added, and placed in a water bath at 37° C. to record the whole blood coagulation time.
# [3] = system: blood coagulation function; assay: PT in rabbits, single intravenous administration; format: in vivo, rabbit; settings: single iv 200 (U/kg)
# Procedure: as §4
# (§5) 3.2 Determination of blood coagulation function: Blood samples were taken and the blood function (PT, TT, APTT) was determined at 0 min before administration, at points of 5 min and 15 min after administration, using a platelet-aggregation coagulation factor analyzer. Blood samples were centrifuged at 3510 rpm for 8 min to obtain platelet poor plasma (PPP). Reagent reconstruction and preservation were performed according to the operation requirements of the kit. Immediately after each blood sample was placed into a test cup and then added with PT. TT and APTT reagents, the test was started. After the test was completed, results were recorded.
# [4] = system: blood coagulation function; assay: APTT in rabbits, single intravenous administration; format: in vivo, rabbit; settings: single iv 200 (U/kg)
# Procedure: as §4, §5
# [5] = system: blood coagulation function; assay: PT in rats, intravenous maintenance administration; format: in vivo, rat
# Procedure: as §1, §2, §3
# The blood samples were taken before administration, administration for 60 minutes, and before termination of administration, respectively, to determine their activated partial thromboplastin time (APTT) and prothrombin time (PT). The blood samples were centrifuged at 3510 rpm for 8 minutes to obtain platelet poor plasma (PPP). Reagent reconstruction and preservation were performed according to the operation requirements of the kit. Immediately after each blood sample was placed into a test cup and then PT and APTT reagents were added, the test was started. After the test was completed, results were recorded.
# 5.1 Determination of blood coagulation function: The blood samples were taken 0 min before administration, administration for 60 minutes, and termination of administration, respectively, and then determined using a platelet-aggregation coagulation factor analyzer for the blood coagulation functions (PT. APTT) and ACT.
substance,measurement,setting,value
Enoxaparin,Common carotid arterial thrombosis Fold of prolongation,[1]; iv 30 + 45 u (U/kg+U/kg/h),1.93 ± 0.52
same,Common carotid arterial thrombosis OT,[1]; iv 30 + 45 u (U/kg+U/kg/h),48.17 ± 13.12 min
same,Common carotid arterial thrombosis Fold of prolongation,[1]; iv 30 + 120 u (U/kg+U/kg/h),1.66 ± 0.27
same,Common carotid arterial thrombosis OT,[1]; iv 30 + 120 u (U/kg+U/kg/h),41.4 ± 6.68 min
same,Common carotid arterial thrombosis Fold of prolongation,[1]; iv 60 + 60 u (U/kg+U/kg/h),2.23 ± 0.29
same,Common carotid arterial thrombosis OT,[1]; iv 60 + 60 u (U/kg+U/kg/h),55.75 ± 7.23 min
same,Common carotid arterial thrombosis Fold of prolongation,[1]; iv 60 + 240 u (U/kg+U/kg/h),1.99 ± 0.20
same,Common carotid arterial thrombosis OT,[1]; iv 60 + 240 u (U/kg+U/kg/h),49.75 ± 5.04 min
same,Common carotid arterial thrombosis Fold of prolongation,[1]; iv 90 + 120 u (U/kg+U/kg/h),1.95 ± 0.46
same,Common carotid arterial thrombosis OT,[1]; iv 90 + 120 u (U/kg+U/kg/h),48.83 ± 11.58 min
same,ACT,[2]; Administration for 5 min,915.0 ± 37.7 s
same,ACT,[2]; Administration for 15 min,610.7 ± 25.7 s
same,ACT fold of prolongation,[2]; After administration 5 min,3.4 ± 1.1
same,ACT fold of prolongation,[2]; After administration 15 min,2.2 ± 0.7
same,ACT,[2]; Before administration,285.0 ± 25.6 s
same,PT fold of prolongation,[3]; Administration 5 min,1.2 ± 0.1
same,PT fold of prolongation,[3]; Administration 15 min,1.2 ± 0.1
same,PT,[3]; Administration for 5 min,6.7 ± 1.1 S
same,PT,[3]; Administration for 15 min,6.7 ± 0.8 S
same,PT,[3]; Before administration,5.8 ± 0.2 S
same,APTT fold of prolongation,[4]; Administration 5 min,2.2 ± 0.5
same,APTT fold of prolongation,[4]; Administration 15 min,1.8 ± 0.3
same,APTT,[4]; Administration for 5 min,48.7 ± 3.9 s
same,APTT,[4]; Administration for 15 min,40.9 ± 2.9 s
same,APTT,[4]; Before administration,22.5 ± 1.1 s
same,PT Before administration,[5]; iv 30 + 45 u (U/kg+U/kg/h),10.23 ± 1.19
same,PT Fold of change,[5]; iv 30 + 45 u (U/kg+U/kg/h),1.24 ± 0.14
same,PT administration for 60 minutes,[5]; iv 30 + 45 u (U/kg+U/kg/h),12.70 ± 2.49
same,PT Before administration,[5]; iv 30 + 120 u (U/kg+U/kg/h),9.93 ± 1.77
same,PT Fold of change,[5]; iv 30 + 120 u (U/kg+U/kg/h),1.67 ± 0.42
same,PT administration for 60 minutes,[5]; iv 30 + 120 u (U/kg+U/kg/h),16.17 ± 1.86
same,PT Before administration,[5]; iv 60 + 60 u (U/kg+U/kg/h),9.53 ± 1.96
same,PT Fold of change,[5]; iv 60 + 60 u (U/kg+U/kg/h),4.10 ± 5.56
same,PT administration for 60 minutes,[5]; iv 60 + 60 u (U/kg+U/kg/h),31.39 ± 35.50
same,PT Before administration,[5]; iv 60 + 240 u (U/kg+U/kg/h),10.28 ± 0.98
same,PT Fold of change,[5]; iv 60 + 240 u (U/kg+U/kg/h),1.78 ± 0.30
same,PT administration for 60 minutes,[5]; iv 60 + 240 u (U/kg+U/kg/h),18.21 ± 2.70
same,PT Before administration,[5]; iv 90 + 120 u (U/kg+U/kg/h),9.63 ± 1.58
same,PT Fold of change,[5]; iv 90 + 120 u (U/kg+U/kg/h),1.57 ± 0.21
same,PT administration for 60 minutes,[5]; iv 90 + 120 u (U/kg+U/kg/h),14.88 ± 1.67
